In PubChem BioAssay AID2060342 (Molecular Pharmacology Branch, DTP, NCI, 2025):

Test system: 171881-019-R-J1-PDC multicell spheroid viability
Experiment: Anticancer human tumor 171881-019-R-J1-PDC patient-derived invasive breast carcinoma cell line growth inhibition [IpAb]
Conditions: for IC50: curve of first compound; for viability, T/C: stronger effect = lower value
Outline: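 Spheroids of 60% malignant cells, 25% HUVEC and 15% MSC were exposed to targeted agents combined with ipatasertib or abemaciclib. Doses started at or near clinical Cmax (10 microM when unknown) and fell in half-log steps.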

[1] = second compound 0.01 µM, first compound 0.0316 µM
[2] = second compound 0.01 µM, first compound 0.1 µM
[3] = second compound 0.0316 µM, first compound 0.0316 µM
[4] = second compound 0.0316 µM, first compound 0.1 µM
[5] = second compound 0.1 µM, first compound 0.0316 µM
[6] = second compound 0.1 µM, first compound 0.1 µM
[7] = second compound 0.316 µM, first compound 0.0316 µM
[8] = second compound 0.316 µM, first compound 0.1 µM
[9] = second compound 1 µM, first compound 0.0316 µM
[10] = second compound 1 µM, first compound 0.1 µM
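Further: spheroids exposed to the agents for seven days before readout.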

Compound: Cn1ncc(Cl)c1-c1cc(C(=O)NC(CN)Cc2cccc(F)c2)sc1Cl (stereo not given) + CCN1CCN(Cc2ccc(Nc3ncc(F)c(-c4cc(F)c5nc(C)n(C(C)C)c5c4)n3)nc2)CC1
- IC50 (second compound 0.01 µM): 183 nM
- IC50 (second compound 0.0316 µM): 176 nM
- IC50 (second compound 0.1 µM): 167 nM
- IC50 (second compound 0.316 µM): 207 nM
- IC50 (second compound 1 µM): 345 nM
- viability, T/C [1]: 116%
- viability, T/C [2]: 69.1%
- viability, T/C (second compound 0.01 µM, first compound 0.316 µM): 31.4%
- viability, T/C (second compound 0.01 µM, first compound 1 µM): 16.8%
- viability, T/C (second compound 0.01 µM, first compound 3.16 µM): 3.11%
- viability, T/C (second compound 0.01 µM, first compound 10 µM): 0.48%
- viability, T/C [3]: 116%
- viability, T/C [4]: 67.4%
- viability, T/C (second compound 0.0316 µM, first compound 0.316 µM): 31.1%
- viability, T/C (second compound 0.0316 µM, first compound 1 µM): 15.9%
- viability, T/C (second compound 0.0316 µM, first compound 3.16 µM): 4.15%
- viability, T/C (second compound 0.0316 µM, first compound 10 µM): 0.13%
- viability, T/C [5]: 103%
- viability, T/C [6]: 66.2%
- viability, T/C (second compound 0.1 µM, first compound 0.316 µM): 28%
- viability, T/C (second compound 0.1 µM, first compound 1 µM): 17.3%
- viability, T/C (second compound 0.1 µM, first compound 3.16 µM): 3.84%
- viability, T/C (second compound 0.1 µM, first compound 10 µM): 0.58%
- viability, T/C [7]: 107%
- viability, T/C [8]: 73.2%
- viability, T/C (second compound 0.316 µM, first compound 0.316 µM): 34%
- viability, T/C (second compound 0.316 µM, first compound 1 µM): 19.4%
- viability, T/C (second compound 0.316 µM, first compound 3.16 µM): 4.04%
- viability, T/C (second compound 0.316 µM, first compound 10 µM): 0.34%
- viability, T/C [9]: 122%
- viability, T/C [10]: 87.9%
- viability, T/C (second compound 1 µM, first compound 0.316 µM): 50.1%
- viability, T/C (second compound 1 µM, first compound 1 µM): 27.3%
- viability, T/C (second compound 1 µM, first compound 3.16 µM): 8.61%
- viability, T/C (second compound 1 µM, first compound 10 µM): 0.61%

Compound: Cn1ncnc1[C@H]1c2n[nH]c(=O)c3cc(F)cc(c23)N[C@@H]1c1ccc(F)cc1 + CCN1CCN(Cc2ccc(Nc3ncc(F)c(-c4cc(F)c5nc(C)n(C(C)C)c5c4)n3)nc2)CC1
- IC50 (second compound 0.01 µM): > 100 nM
- IC50 (second compound 0.0316 µM): > 100 nM
- IC50 (second compound 0.1 µM): > 100 nM
- IC50 (second compound 0.316 µM): > 100 nM
- IC50 (second compound 1 µM): > 100 nM
- viability, T/C (second compound 0.01 µM, first compound 0.000316 µM): 88.2%
- viability, T/C (second compound 0.01 µM, first compound 0.001 µM): 99.7%
- viability, T/C (second compound 0.01 µM, first compound 0.00316 µM): 86.9%
- viability, T/C (second compound 0.01 µM, first compound 0.01 µM): 102%
- viability, T/C [1]: 95.5%
- viability, T/C [2]: 109%
- viability, T/C (second compound 0.0316 µM, first compound 0.000316 µM): 109%
- viability, T/C (second compound 0.0316 µM, first compound 0.001 µM): 96.2%
- viability, T/C (second compound 0.0316 µM, first compound 0.00316 µM): 113%
- viability, T/C (second compound 0.0316 µM, first compound 0.01 µM): 114%
- viability, T/C [3]: 104%
- viability, T/C [4]: 113%
- viability, T/C (second compound 0.1 µM, first compound 0.000316 µM): 118%
- viability, T/C (second compound 0.1 µM, first compound 0.001 µM): 118%
- viability, T/C (second compound 0.1 µM, first compound 0.00316 µM): 115%
- viability, T/C (second compound 0.1 µM, first compound 0.01 µM): 114%
- viability, T/C [5]: 116%
- viability, T/C [6]: 113%
- viability, T/C (second compound 0.316 µM, first compound 0.000316 µM): 126%
- viability, T/C (second compound 0.316 µM, first compound 0.001 µM): 132%
- viability, T/C (second compound 0.316 µM, first compound 0.00316 µM): 124%
- viability, T/C (second compound 0.316 µM, first compound 0.01 µM): 127%
- viability, T/C [7]: 130%
- viability, T/C [8]: 126%
- viability, T/C (second compound 1 µM, first compound 0.000316 µM): 143%
- viability, T/C (second compound 1 µM, first compound 0.001 µM): 141%
- viability, T/C (second compound 1 µM, first compound 0.00316 µM): 140%
- viability, T/C (second compound 1 µM, first compound 0.01 µM): 135%
- viability, T/C [9]: 137%
- viability, T/C [10]: 138%
